Consider 10 compounds from patent publication US20070021405A1, “ARYL- AND HETEROARYLPIPERIDINECARBOXYLATE-DERIVATIVES METHODS FOR THEIR PREPARATION AND USE THEREOF AS FATTY ACID AMIDO HYDROLASE ENZYME INHIBITORS” (SANOFI-AVENTIS, priority 2004, published 2007).

System in one data set: not given
Test: not given
Conditions: not given
The compound `CNC(=O)COC(=O)N1CCC(O)(c2ccc(Br)cc2)CC1` [Compound No. 32, 2-(Methylamino)-2-oxoethyl 4-(4-bromophenyl)-4-hydroxypiperidine-1-carboxylate] registered a melting point of 57 to 60 °C. In turn, `CNC(=O)COC(=O)N1CCC(Cc2ccc3ccccc3c2)CC1` [Compound No. 43, 2-(Methylamino)-2-oxoethyl 4-(naphth-2-ylmethyl)piperidine-1-carboxylate] registered a melting point of 150 to 152 °C. In the case of `CNC(=O)COC(=O)N1CCC(CCc2nccc3ccccc23)CC1` [Compound No. 74, 2-(Methylamino)-2-oxoethyl 4-(2-(isoquinolin-1-yl)ethyl)-1-piperidinecarboxylate], the melting point was in the range of 126 to 128 °C. As for `CNC(=O)COC(=O)N1CCC(CC#Cc2ccc(Cl)cc2)CC1` [Compound No. 107, 2-(Methylamino)-2-oxoethyl 4-[3-(4-chlorophenyl)prop-2-yn-1-yl]piperidine-1-carboxylate], the melting point fell in the range of 101 to 103 °C.

Take `CNC(=O)COC(=O)N1CCC(CCCc2ccc(Cl)cc2)CC1` [Compound No. 83, 2-(Methylamino)-2-oxoethyl 4-[3-(4-chlorophenyl)propyl]piperidine-1-carboxylate]: the melting point was 118 to 120 °C. Take `CNC(=O)COC(=O)N1CCC(O)(c2ccc(-c3ccc(Cl)c(Cl)c3)cc2)CC1` [Compound No. 40, 2-(Methylamino)-2-oxoethyl 4-(3′,4′-dichlorobiphenyl-4-yl)-4-hydroxypiperidine-1-carboxylate]: the melting point fell in the range of 156 to 158 °C.

The compound `NC(=O)COC(=O)N1CCC(Cn2ccc3ccccc32)CC1` [compound 47, 2-amino-2-oxoethyl 4-(1H-indol-1-ylmethyl)piperidine-1-carboxylate] displayed a melting point of 158 to 159 °C. Regarding `CNC(=O)COC(=O)N1CCC(n2cnc(-c3ccccc3)c2)CC1` [Compound No. 14, 2-(Methylamino)-2-oxoethyl 4-(4-phenyl-1H-imidazol-1-yl)piperidine-1-carboxylate], the melting point lay in the range of 192 to 194 °C.

In the next data set the test system is male OF1 mice. In words: test for analgesia: abdominal tractions induced by PBQ (phenylbenzoquinone) i.p. As to conditions: 3 mg/kg p.o., administered 60 minutes before PBQ. The format is in vivo, mouse. As to the method:
The in vivo activity of the compounds of the invention was evaluated in a test for analgesia.
Thus, the intraperitoneal (i.p.) administration of PBQ (phenylbenzoquinone, 2 mg/kg in a 0.9% sodium chloride solution comprising 5% of ethanol) to male OF1 mice weighing 25 to 30 g causes abdominal tractions, on average 30 twisting or contracting motions during the period from 5 to 15 minutes after injection. The test compounds are administered, orally (p.o.) or intraperitoneally (i.p.) in suspension in 0.5% Tween 80, 60 minutes or 120 minutes before the administration of PBQ. Under these conditions, the most powerful compounds of the invention reduce by 35 to 70% the number of tractions induced by the PBQ, within a range of doses of between 1 and 30 mg/kg.
On to `CNC(=O)COC(=O)N1CCC(CCc2ccc(Cl)cc2)CC1` [compound 57, 2-(methylamino)-2-oxoethyl 4-[2-(4-chloro-phenyl)ethyl]piperidine-1-carboxylate], for which the “reduction of the number of tractions induced by the PBQ” value was 37%.

Staying with this data set, now noted: 3 mg/kg p.o., administered 120 minutes before PBQ.
As to `CNC(=O)COC(=O)N1CCC(CCc2ccc(Cl)cc2)CC1` [compound 57, 2-(methylamino)-2-oxoethyl 4-[2-(4-chloro-phenyl)ethyl]piperidine-1-carboxylate], the “reduction of the number of tractions induced by the PBQ” value is listed as 74%.

A further data set addresses T1, enzyme FAAH (Fatty Acid Amido Hydrolase) (Mus musculus, UniProt O08914).
T1 construct: The membrane homogenates are prepared at the time of use by homogenization of the tissues; from tissue; host or cells: mouse brain (minus the cerebellum), membrane homogenate
T1 sequence (O08914 1-579): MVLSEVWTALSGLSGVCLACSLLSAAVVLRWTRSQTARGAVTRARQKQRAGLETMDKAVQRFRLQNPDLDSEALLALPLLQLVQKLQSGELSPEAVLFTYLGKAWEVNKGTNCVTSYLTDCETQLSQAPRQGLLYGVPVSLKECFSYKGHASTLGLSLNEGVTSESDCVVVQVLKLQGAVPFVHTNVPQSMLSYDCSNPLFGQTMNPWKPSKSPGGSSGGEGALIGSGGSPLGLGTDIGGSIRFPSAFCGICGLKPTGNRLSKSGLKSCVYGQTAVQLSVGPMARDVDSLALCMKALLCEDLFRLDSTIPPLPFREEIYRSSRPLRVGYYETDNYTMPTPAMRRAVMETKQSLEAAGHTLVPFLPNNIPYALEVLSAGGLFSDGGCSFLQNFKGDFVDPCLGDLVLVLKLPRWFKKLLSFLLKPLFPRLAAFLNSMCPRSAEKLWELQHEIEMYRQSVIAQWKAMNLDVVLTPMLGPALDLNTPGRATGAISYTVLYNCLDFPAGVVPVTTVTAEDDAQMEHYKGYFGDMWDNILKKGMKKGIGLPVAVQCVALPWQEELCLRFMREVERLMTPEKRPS
The experiment in a line: radioenzymatic test of FAAH inhibition: hydrolysis of ((1-3H)ethanolamine)-anandamide by mouse brain membrane homogenates. The format is biochemical. Conditions: mouse brain membrane homogenate, 10 μM anandamide, 15 minutes at 25° C.; read-out: IC50 (concentration which inhibits the control enzymatic activity of FAAH by 50%). As to the method: The compounds of the invention have formed the subject of pharmacological trials which make it possible to determine their inhibitory effect on the enzyme FAAH (Fatty Acid Amido Hydrolase).
Thus, mouse brains (minus the cerebellum) are removed and stored at −80° C. The membrane homogenates are prepared at the time of use by homogenization of the tissues with a Polytron in a 10 mM Tris-HCl buffer (pH 8.0) comprising 150 mM NaCl and 1 mM EDTA. The enzymatic reaction is subsequently carried out in 70 μl of buffer comprising bovine serum albumin free from fatty acids (1 mg/ml). The test compounds, at various concentrations, the ((1-^3H)ethanolamine)-anandamide (specific activity of 15-20 Ci/mmol), diluted to 10 μM with non-radiolabelled anandamide, and the membrane preparation (400 μg of frozen tissue per assay) are successively added. After 15 minutes at 25° C., the enzymatic reaction is halted by addition of 140 μl of chloroform/methanol (2:1). The mixture is stirred for 10 minutes and is then centrifuged at 3500 g for 15 minutes. An aliquot (30 μl) of the aqueous phase comprising the (1-^3H)ethanolamine is counted by liquid scintillation.
`CCOc1ccc(-c2ccc(C3(O)CCN(C(=O)OCC(=O)NC)CC3)cc2)cc1` [compound 39, 2-(methylamino)-2-oxoethyl 4-(4′-ethoxybiphenyl-4-yl)-4-hydroxypiperidine-1-carboxylate]: the IC50 was determined as 95 nM. Take `CNC(=O)COC(=O)N1CCC(O)(c2ccc(-c3ccc(Cl)c(Cl)c3)cc2)CC1` [Compound No. 40, 2-(Methylamino)-2-oxoethyl 4-(3′,4′-dichlorobiphenyl-4-yl)-4-hydroxypiperidine-1-carboxylate]: the IC50 is 98 nM.
